Data set [1] has as its system vaccinia virus WR. Type of data set: cell-based.
Data set [2] deals with vaccinia virus WR. The data set is described as follows: microbe, parasite or virus in culture. Type of data set: cell-based.
The subject of data set [3] is BS-C-1 cells. Description: WST-1 cytotoxicity assay. Particulars: for tox 20 h TC50 / tox 120 h TC50 / tox 72 h TC50: Table 6; for CC50: Table 4. On the technique in general: Formazan colour is commonly taken as a measure of viable cells.
Data set [4] relates to vaccinia virus WR. The data set is described as follows: microbe, parasite or virus in culture. Type of data set: cell-based. This is another data set of the same source.
The target of data set [5] is vaccinia virus DNA synthesis (viral DNA polymerase and its associated factors) (Vaccinia virus, UniProt P06856). It counts as biochemical.
For data set [6], the system named is vaccinia virus. It counts as cell-based.
Where [7] appears, read: Orthopoxvirus vaccinia, 20 h, read-out: Plaque Reduction 20 h EC50.
The mark [8] stands for this setting: Orthopoxvirus vaccinia, BSC-1, 20 h, read-out: plaque red EC50.
The mark [9] stands for this setting: read-out: Cytotoxicity 20 h CC50, 20 h.
Setting [10] is: read-out: Cytotoxicity 120 h CC50, 120 h.
Setting [11] is: Orthopoxvirus vaccinia, 20 h, read-out: Cell Protection 20 h EC50.
[12] abbreviates: Orthopoxvirus vaccinia, BSC-1, 20 h, read-out: cell prot EC50.
The mark [13] stands for this setting: read-out: DNA Synthesis Inhibition IC50.
[14] abbreviates: read-out: Cytotoxicity 72 h CC50, 72 h.

Here are results for 18 molecules from patent publication US9211296B2, “Therapeutic compounds for blocking DNA synthesis of POX viruses” (priority 2007, dated 2015).

Read-outs that look alike come from different tables or passages of the source. A value given as a limit tells only on which side of the number the result lay.

The term EC50 denotes the concentration that produces a half-maximal response. By CC50 is commonly meant the concentration at which the toxic effect on the cells reaches its halfway point. Broadly, the IC50 is the point on the concentration scale where inhibition reaches its midpoint.

As to `COC(=O)c1cccc2c1-c1ccccc1/C2=N\O` [Compound 1], in data set [1], the “Effect of dsDNA” value is listed as “No”. The “trapped by dsDNA” value in data set [1] is listed as “no”. The EC50 in data set [2] (setting [7]) came out at 10 µM; in data set [2] (setting [8]) it was 10 µM; in data set [4] (setting [11]), 9.6 µM; in data set [4] (setting [12]), 9.6 µM. Besides, the “tox 20 h TC50” value in data set [3] (20 h) was 127 µM. Besides, in data set [3] (120 h), the “tox 120 h TC50” value was 20 µM. In addition, the CC50 in data set [3] (setting [9]) was determined as 127 µM; in data set [3] (setting [10]), 20 µM. Further, the “Selectivity Index SI” value in data set [4] came out at 13.2. In data set [4], this molecule returned a selectivity index of 13.2. For the same molecule, in data set [4], the “selectivity index over 72 h” value is on record as 3.2. Moreover, the IC50 in data set [5] (setting [13]) and in data set [5] (read-out: DNA synth IC50) was 108 µM throughout.

Regarding `CCNc1nc(SCc2ccc(Cl)cc2)nc2sc3c(c12)CCN(C)C3` [Compound 5], the “Effect of dsDNA” value in data set [1] is recorded as “No”. Moreover, the “trapped by dsDNA” value in data set [1] is given as “no”. Also, the EC50 in data set [2] (setting [7]) turned out to be 15 µM; in data set [2] (setting [8]) it was 15 µM; in data set [4] (setting [11]) it was 45 µM; in data set [4] (setting [12]) it was 42 µM. Also, in data set [3] (20 h), the “tox 20 h TC50” value stood at 155 µM. Besides, the “tox 120 h TC50” value in data set [3] (120 h) stood at 5 µM. Further, the results for the CC50 in data set [3] (setting [9]) and in data set [3] (setting [10]) were 115 µM and 5 µM, respectively. Further, the “Selectivity Index SI” value in data set [4] is 2.6. Besides, in data set [4], the selectivity index came out at 2.6. The IC50 in data set [5] (setting [13]) and in data set [5] (read-out: DNA synth IC50) was 129 µM throughout.

In the case of `CC[n+]1c(-c2ccccc2)c2cc(N)ccc2c2ccc(N)cc21` [Ethidium, reference compound], the “Effect of dsDNA” value in data set [1] is recorded as “Yes”. Further, in data set [4] (setting [11]), the EC50 came out at 100 µM.

Take `C[C@@]1(CO)[C@H](O)CC[C@@]2(C)[C@H]1CC[C@H]1C[C@@H]3C[C@@]12CC[C@]3(O)CO` [Aphidicolin, reference compound]: in data set [1], the “Effect of dsDNA” value was “No”. The EC50 in data set [4] (setting [11]) came out at 18 µM.

With `N=C1/C(=C/c2coc3ccccc3c2=O)C(=O)N=C2SC=NN12` [Compound 14], the “Effect of dsDNA” value in data set [1] is listed as “No”. For the same molecule, in data set [1], the “trapped by dsDNA” value is reported as “no”. In addition, the EC50 in data set [2] (setting [7]) amounted to 150 µM; in data set [2] (setting [8]), 150 µM; in data set [4] (setting [11]) it was 188 µM; in data set [4] (setting [12]), 188 µM. In addition, the “tox 20 h TC50” value in data set [3] (20 h) is more than 200 µM. Also, the “tox 72 h TC50” value in data set [3] (72 h) is more than 200 µM. Besides, in data set [3] (120 h), the “tox 120 h TC50” value was 50 µM. Also, the figures for the CC50 in data set [3] (setting [9]), in data set [3] (setting [14]) and in data set [3] (setting [10]) were more than 200 µM, more than 200 µM and 50 µM, respectively. In addition, the “Selectivity Index SI” value in data set [4] was more than 1. This molecule had a selectivity index in data set [4] of more than 1. The IC50 in data set [5] (setting [13]) and in data set [5] (read-out: DNA synth IC50) was 75 µM in each case.

Consider `CCOC(=O)c1c(NC(=O)/C=C/C(=O)O)sc(C)c1-c1ccccc1` [Compound 2], for which the “Effect of dsDNA” value in data set [1] is “No”. In addition, the “trapped by dsDNA” value in data set [1] is reported as “no”. Besides, the EC50 was 25 µM in data set [2] (setting [7]), 25 µM in data set [2] (setting [8]), 30 µM in data set [4] (setting [11]) and 30 µM in data set [4] (setting [12]). The “tox 20 h TC50” value in data set [3] (20 h) was 159 µM. The cytotoxic concentration (CC50) in data set [3] (setting [9]) is 159 µM. The IC50 in data set [5] (setting [13]) and in data set [5] (read-out: DNA synth IC50) was 374 µM throughout.

Turning to `CC(=O)n1c2ccccc2c2nc(C)sc21` [Compound 15], in data set [1], the “Effect of dsDNA” value was “No”. The “trapped by dsDNA” value in data set [1] was “no”. Further, the EC50 in data set [2] (setting [7]) amounted to 100 µM; in data set [2] (setting [8]), 100 µM; in data set [4] (setting [11]) it was 236 µM; in data set [4] (setting [12]) it was 236 µM. For the same molecule, the “tox 20 h TC50” value in data set [3] (20 h) was more than 200 µM. In data set [3] (72 h), the “tox 72 h TC50” value was more than 200 µM. The “tox 120 h TC50” value in data set [3] (120 h) was 75 µM. The half-maximal cytotoxic concentration (CC50) in data set [3] (setting [9]) was more than 200 µM; in data set [3] (setting [14]), more than 200 µM; in data set [3] (setting [10]), 75 µM. Further, in data set [4], the “Selectivity Index SI” value is given as more than 1. Moreover, the selectivity index in data set [4] was more than 1. For the same molecule, the IC50 in data set [5] (setting [13]) and in data set [5] (read-out: DNA synth IC50) was 111 µM each time.

For the molecule `Nc1ccn([C@@H]2O[C@H](CO)[C@@H](O)[C@@H]2O)c(=O)n1` [Ara-C, reference compound], in data set [1], the “Effect of dsDNA” value is “Yes”. Moreover, the EC50 in data set [2] (read-out: Plaque Reduction 20 h EC50) was found to be 0.5 µM; in data set [4] (read-out: Cell Protection 20 h EC50), 0.24 µM. Further, the half-maximal cytotoxic concentration (CC50) in data set [3] (setting [9]) was found to be 16 µM.

In the case of `CCN(CC)CCCC(C)Nc1c2ccc(Cl)cc2nc2ccc(OC)cc12` (stereo not shown) [Quinacrine, reference compound], in data set [1], the “Effect of dsDNA” value is “Yes”. Further, the EC50 in data set [4] (setting [11]) turned out to be 17 µM.

Regarding `Cc1csc2c(N3CCN(C(=O)NC(C)(C)C)CC3)ncnc12` [Compound 4], the “Effect of dsDNA” value in data set [1] is on record as “No”. For the same molecule, the “trapped by dsDNA” value in data set [1] was “no”. Moreover, the EC50 in data set [2] (setting [7]) is 15 µM; in data set [2] (setting [8]), 15 µM; in data set [4] (setting [11]), 50 µM; in data set [4] (setting [12]) it was 50 µM. In addition, the “tox 20 h TC50” value in data set [3] (20 h) worked out at 157 µM. Further, in data set [3] (120 h), the “tox 120 h TC50” value stood at 40 µM. Moreover, the values for the CC50 in data set [3] (setting [9]) and in data set [3] (setting [10]) were 157 µM and 40 µM, respectively. For the same molecule, the “Selectivity Index SI” value in data set [4] is on record as 3.1. Also, in data set [4], the selectivity index is 3.1. The half-maximal inhibitory concentration (IC50) in data set [5] (setting [13]) and in data set [5] (read-out: DNA synth IC50) was 12 µM each time.

With `Cc1ccc2c(Sc3ccc(Cl)cc3)c(C(=O)O)[nH]c2c1` [Compound 11], in data set [1], the “Effect of dsDNA” value is on record as “No”. Further, the “trapped by dsDNA” value in data set [1] is reported as “no”. Further, the EC50 came out at 75 µM in data set [2] (setting [7]), 75 µM in data set [2] (setting [8]), 130 µM in data set [4] (setting [11]) and 130 µM in data set [4] (setting [12]). Besides, the “tox 20 h TC50” value in data set [3] (20 h) is more than 200 µM. In addition, the “tox 72 h TC50” value in data set [3] (72 h) came to 174 µM. Also, the “tox 120 h TC50” value in data set [3] (120 h) was 120 µM. For the same molecule, the CC50 in data set [3] (setting [9]) was more than 200 µM; in data set [3] (setting [14]), 174 µM; in data set [3] (setting [10]) it was 120 µM. In data set [4], the “Selectivity Index SI” value is recorded as more than 1.5. The molecule further registered a selectivity index in data set [4] of more than 1.5. Also, the IC50 in data set [5] (setting [13]) and in data set [5] (read-out: DNA synth IC50) was 43 µM each time.

For `Cc1cc(N)c2cc(OCCOc3ccc4nc(C)cc(N)c4c3)ccc2n1` [XL, 6,6′-(ethane-1,2-diylbis(oxy))bis(2-methylquinolin-4-amine)], in data set [6], the “Blocking the replication of vaccinia virus in cells” value (“Blocking the replication” for short) is on record as “effective in blocking the replication of vaccinia virus in cells”.

Regarding `CC(=O)n1c2ccccc2c2nc(C)sc21` [XVII, 4H-Thiazolo[5,4-b]indole, 4-acetyl-2-methyl-(9CI)], in data set [6], the “Blocking the replication” value is listed as “effective in blocking the replication of vaccinia virus in cells”.

As to `Cc1ccc2oc(-c3ccccc3)c/c(=N\CCO)c2c1` [II, (E)-2-(6-methyl-2-phenyl-4H-chromen-4-ylideneamino)ethanol], the “Blocking the replication” value in data set [6] is listed as “effective in blocking the replication of vaccinia virus in cells”.

For the molecule `O=C(O)Cn1c2ccc(Cl)cc2c2nc3ccccc3nc21` [IX, 6H-Indolo[2,3-b]quinoxaline-6-acetic acid, 9-chloro-(9CI)], the “Blocking the replication” value in data set [6] is listed as “effective in blocking the replication of vaccinia virus in cells”.

As for `CCn1c2ccccc2c2ccc(/C=N/n3cnnc3)cc21` [XXIV, (E)-N-((9-ethyl-9H-carbazol-2-yl)methylene)-4H-1,2,4-triazol-4-amine], the “Blocking the replication” value in data set [6] is reported as “effective in blocking the replication of vaccinia virus in cells”.

On to `Cc1ccc2c(Sc3ccc(Cl)cc3)c(C(=O)O)[nH]c2c1` [XIV, 3-(4-chlorophenylthio)-6-methyl-1H-indole-2-carboxylic acid], for which the “Blocking the replication” value in data set [6] is “effective in blocking the replication of vaccinia virus in cells”.

In the case of `O=c1cc(-c2ccc(O)cc2)oc2cc(O)cc(O)c12` [V, Apigenin], the “Blocking the replication” value in data set [6] was “effective in blocking the replication of vaccinia virus in cells”.
